Peptide text beside a SMILES is read from it.
Legend:
[1] = cited from earlier work; for Solubility Xxx: free amino acid, CRC Handbook of Chemistry and Physics; for solubility: prior art values, background
[2] = system: antibody producing Chinese Hamster Ovary (CHO) cells (Subclone DG44); experiment: Experiment 3: cell growth (VCD) in TC-42 media, L-valine or L-isoleucine replaced by lysyl dipeptides; type: cell-based; parameters: Viable cell densities (VCD) / maximum cell densities (max VCD): unit: 10^6 cells/ml
Text: (§1) The influence of the L-lysine dipeptides on the growth of antibody producing Chinese Hamster Ovary (CHO) cells (Subclone DG44; Life Technologies Cooperation, Carslbad, USA) in comparison to media containing either the corresponding free amino acids or the corresponding L-alanine dipeptides was investigated. For this purpose, the cells were cultivated in a TC-42 media produced by Xell AG, Bielefeld, Germany in which the amino acids provided within the experiments by dipeptides were lacking. The concentrations of these amino acids were adjusted in such a way that, taking into account a complete hydrolysis of the dipeptides into the amino acids, the concentration of all amino acids were the same in all media tested within this experiment.
(§2) Starting from a preparatory culture an initial viable cell density (VCD) of 0.3·10^6 cells/ml was adjusted in shaking flasks by adding the test media. After 2-4 days a part of the cell culture was transferred into a new shaking flask and an initial viable cell density (VCD) of 0.3.10^6 cells/ml was adjusted by adding new test media. This was done two times and then the cell growth was followed by measuring the viable cell density (VCD) for up to 24 days.
Experiment 3: Comparison of the Cell Growths obtained with TC-42 media in which L-valine and L-isoleucine, respectively, are replaced by L-lysyl-L-valine and L-lysyl-L-isoleucine, respectively.
For this experiment a TC-42 media produced by Xell AG, Bielefeld, Germany in which L-lysine, L-valine and L-isoleucine were lacking was used. These amino acids and the dipeptides L-lysyl-L-valine and L-lysyl-L-isoleucine, respectively, were then added to the test media in the concentration listed in table 6.

[3] = Solubility found for Lys-Xxx dipeptides; conditions: as hydrochloride or as acetate (footnotes 6, 7)
[4] = system: antibody producing Chinese Hamster Ovary (CHO) cells (Subclone DG44); experiment: Experiment 1: cell growth (VCD) in TC-42 media, cysteine/cystine or leucine replaced by dipeptides; type: cell-based; parameters: Viable cell densities (VCD) / maximum cell densities (max. VCD): unit not given here
Text: as §1, with “experiment. […] Experiment 1: Comparison of the Cell Growths Obtained with TC-42 media in which L-cysteine/L-cystine is replaced by bis-L-alanyl-L-cystine, bis-L-prolyl-L-cystine or bis-L-lysyl-L-cystine and L-leucine is replaced by […] For this experiment a TC-42 media produced by Xell AG, Bielefeld, Germany in which […]-cystine and L-leucine were deliberately left out of the initial formulation. […] [table]” for “experiment.”

[5] = system: antibody producing Chinese Hamster Ovary (CHO) cells (Subclone DG44); experiment: Experiment 2: cell growth (VCD) in TC-42 media, L-tyrosine replaced by dipeptides; type: cell-based; parameters: key to Viable cell densities (VCD) / maximum cell densities (max VCD): 10^6 cells/ml
Text: as §1, §2
These amino acids and the dipeptides L-alanyl-L-tyrosine dihydrate and L-lysyl-L-tyrosine acetate, respectively, were then added to the test media in the concentration listed in table 4.

## CC(C)C[C@H](N)C(=O)O [L-Leucine]
[1]
  Solubility Xxx: 23.7 g/1000 g solution

## CC(C)[C@H](NC(=O)[C@@H](N)CCCCN)C(=O)O [Lys-Val, L-Lysyl-L-valine] (H-Lys-Val-OH)
[2]; TC-42 media of table 6
  maximum cell densities (max VCD): 17.25
[2]; Time 0.0, TC-42 media of table 6
  Viable cell densities (VCD): 0.43
[2]; Time 2.8, TC-42 media of table 6
  Viable cell densities (VCD): 2.04
[2]; Time 3.0, TC-42 media of table 6
  Viable cell densities (VCD): 0.50
[2]; Time 6.8, TC-42 media of table 6
  Viable cell densities (VCD): 4.37
[2]; Time 6.9, TC-42 media of table 6
  Viable cell densities (VCD): 0.39
[2]; Time 7.9, TC-42 media of table 6
  Viable cell densities (VCD): 0.61
[2]; Time 8.8, TC-42 media of table 6
  Viable cell densities (VCD): 1.15
[2]; Time 9.8, TC-42 media of table 6
  Viable cell densities (VCD): 2.07
[2]; Time 10.8, TC-42 media of table 6
  Viable cell densities (VCD): 3.35
[2]; Time 11.8, TC-42 media of table 6
  Viable cell densities (VCD): 5.79
[2]; Time 12.9, TC-42 media of table 6
  Viable cell densities (VCD): 8.34
[2]; Time 13.8, TC-42 media of table 6
  Viable cell densities (VCD): 11.08
[2]; Time 14.8, TC-42 media of table 6
  Viable cell densities (VCD): 15.45
[2]; Time 15.9, TC-42 media of table 6
  Viable cell densities (VCD): 16.84
[2]; Time 16.9, TC-42 media of table 6
  Viable cell densities (VCD): 17.25
[2]; Time 17.9, TC-42 media of table 6
  Viable cell densities (VCD): 16.27
[2]; Time 18.8, TC-42 media of table 6
  Viable cell densities (VCD): 14.62
[2]; equimolar amounts
  growth curve and maximum cell density compared with reference medium (FIG. 3): almost matching those of the reference medium
[3]
  Solubility Lys-Xxx found: >400 ^6) g/1000 g solution

## NCCCC[C@H](N)C(=O)N[C@@H](Cc1ccc(O)cc1)C(=O)O [Lys-Tyr, L-Lysyl-L-tyrosine acetate]
[3]
  Solubility Lys-Xxx found: >330 ^7) g/1000 g solution

## CC[C@H](C)[C@H](N)C(=O)O [L-Isoleucine]
[1]
  Solubility Xxx: 39.6 g/1000 g solution

## Bis-L-prolyl-L-cystine [Pro2-Cyss, reference compound]
[4]; TC-42 media of table 2
  maximum cell densities (max. VCD): 0.79
[4]; Time 0.0, TC-42 media of table 2
  Viable cell densities (VCD): 0.31
[4]; Time 0.7, TC-42 media of table 2
  Viable cell densities (VCD): 0.37
[4]; Time 2.0, TC-42 media of table 2
  Viable cell densities (VCD): 0.32
[4]; Time 2.7, TC-42 media of table 2
  Viable cell densities (VCD): 0.21
[4]; Time 3.6, TC-42 media of table 2
  Viable cell densities (VCD): 0.18
[4]; Time 3.7, TC-42 media of table 2
  Viable cell densities (VCD): 0.30
[4]; Time 4.7, TC-42 media of table 2
  Viable cell densities (VCD): 0.24
[4]; Time 5.8, TC-42 media of table 2
  Viable cell densities (VCD): 0.14
[4]; Time 6.7, TC-42 media of table 2
  Viable cell densities (VCD): 0.08
[4]; Time 6.8, TC-42 media of table 2
  Viable cell densities (VCD): 0.32
[4]; Time 7.8, TC-42 media of table 2
  Viable cell densities (VCD): 0.43
[4]; Time 8.7, TC-42 media of table 2
  Viable cell densities (VCD): 0.41
[4]; Time 9.7, TC-42 media of table 2
  Viable cell densities (VCD): 0.34
[4]; Time 10.6, TC-42 media of table 2
  Viable cell densities (VCD): 0.27
[4]; Time 11.6, TC-42 media of table 2
  Viable cell densities (VCD): 0.79
[4]; same molar amount of cysteine and cystine in the form of dipeptides
  cell growth performance compared with reference medium (FIG. 1): almost no growth

## CC(C)[C@H](N)C(=O)O [L-Valine]
[1]
  Solubility Xxx: 81.3 g/1000 g solution

## L-Alanyl-L-tyrosine × 2H2O [Ala-Tyr]
[5]; TC-42 media of table 4
  maximum cell densities (max VCD): 12.44
[5]; Time [d] 0.0, TC-42 media of table 4
  Viable cell densities (VCD): 0.38
[5]; Time [d] 0.7, TC-42 media of table 4
  Viable cell densities (VCD): 0.51
[5]; Time [d] 1.7, TC-42 media of table 4
  Viable cell densities (VCD): 1.22
[5]; Time [d] 2.7, first entry, TC-42 media of table 4
  Viable cell densities (VCD): 2.22
[5]; Time [d] 2.7, second entry (after transfer into new flask), TC-42 media of table 4
  Viable cell densities (VCD): 0.35
[5]; Time [d] 4.0, TC-42 media of table 4
  Viable cell densities (VCD): 0.77
[5]; Time [d] 4.9, TC-42 media of table 4
  Viable cell densities (VCD): 1.59
[5]; Time [d] 5.7, TC-42 media of table 4
  Viable cell densities (VCD): 1.93
[5]; Time [d] 6.7, first entry, TC-42 media of table 4
  Viable cell densities (VCD): 2.82
[5]; Time [d] 6.7, second entry (after transfer into new flask), TC-42 media of table 4
  Viable cell densities (VCD): 0.31
[5]; Time [d] 7.7, TC-42 media of table 4
  Viable cell densities (VCD): 0.48
[5]; Time [d] 8.7, TC-42 media of table 4
  Viable cell densities (VCD): 1.17
[5]; Time [d] 9.7, TC-42 media of table 4
  Viable cell densities (VCD): 1.92
[5]; Time [d] 11.0, TC-42 media of table 4
  Viable cell densities (VCD): 4.11
[5]; Time [d] 11.8, TC-42 media of table 4
  Viable cell densities (VCD): 6.12
[5]; Time [d] 12.7, TC-42 media of table 4
  Viable cell densities (VCD): 8.29
[5]; Time [d] 13.7, TC-42 media of table 4
  Viable cell densities (VCD): 10.49
[5]; Time [d] 14.7, TC-42 media of table 4
  Viable cell densities (VCD): 12.44
[5]; Time [d] 15.7, TC-42 media of table 4
  Viable cell densities (VCD): 11.34
[5]; Time [d] 16.7, TC-42 media of table 4
  Viable cell densities (VCD): 12.42
[5]; Time [d] 17.9, TC-42 media of table 4
  Viable cell densities (VCD): 11.06
[5]; Time [d] 18.9, TC-42 media of table 4
  Viable cell densities (VCD): 11.31
[5]; Time [d] 19.7, TC-42 media of table 4
  Viable cell densities (VCD): 11.20
[5]; Time [d] 20.7, TC-42 media of table 4
  Viable cell densities (VCD): 11.13
[5]; Time [d] 21.7, TC-42 media of table 4
  Viable cell densities (VCD): 11.24
[5]; equimolar amounts of tyrosine
  growth curves compared with reference medium (FIG. 2): no significant difference
  maximum cell density compared with reference medium: slightly higher values
[1]; Degussa product brochure, cystine value WO 2011/133902
  Solubility Ala-Xxx: 15.3 g/1000 g solution
[1]
  solubility: 8.7 g/ltr

## N[C@@H](CSSC[C@H](N)C(=O)O)C(=O)O [L-Cystine]
[1]
  Solubility Xxx: 0.1 g/1000 g solution
  solubility: 0.1 g/ltr

Reference: patent US20190390161A1, “CULTURE MEDIUM COMPRISING OLIGOPEPTIDES” (Evonik Degussa GmbH, priority 2017, published 2019)
